Results: PubChem BioAssay (NCI)
Values joined by “and” are separate entries in the source; they are usually repeats but may differ in a detail not shown here. Identical values can stand only once.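 Each compound was tested at five concentrations against cells in 96-well plates for 48 hours. Abbreviation: GI50, concentration required for 50% inhibition of growth. TGI: concentration producing complete growth inhibition.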

Tests used:
Assay in all cases: NCI anticancer screen, dose series, 48 h
ACHN renal = test system: ACHN renal
HCT-15 colon = test system: HCT-15 colon
K-562 leukemia = test system: K-562 leukemia
MOLT-4 leukemia = test system: MOLT-4 leukemia
NCI-H522 lung = test system: NCI-H522 lung
OVCAR-4 ovarian = test system: OVCAR-4 ovarian
SF-268 CNS = test system: SF-268 CNS
SF-295 CNS = test system: SF-295 CNS
SK-MEL-2 melanoma = test system: SK-MEL-2 melanoma
SK-OV-3 ovarian = test system: SK-OV-3 ovarian

Compound | GI50 (ACHN renal) | TGI (ACHN renal) | GI50 (HCT-15 colon) | TGI (HCT-15 colon) | GI50 (K-562 leukemia) | TGI (K-562 leukemia) | GI50 (MOLT-4 leukemia) | TGI (MOLT-4 leukemia) | GI50 (NCI-H522 lung) | TGI (NCI-H522 lung) | GI50 (OVCAR-4 ovarian) | TGI (OVCAR-4 ovarian) | GI50 (SF-268 CNS) | TGI (SF-268 CNS) | GI50 (SF-295 CNS) | TGI (SF-295 CNS) | GI50 (SK-MEL-2 melanoma) | TGI (SK-MEL-2 melanoma) | GI50 (SK-OV-3 ovarian) | TGI (SK-OV-3 ovarian)
COc1ccccc1N1CCN(CCCn2c(=O)c3c(OC)nc(C)cc3c(=O)n2-c2ccccc2)CC1 | > 100 µM | > 100 µM | > 100 µM | > 100 µM | > 100 µM | > 100 µM | > 100 µM | > 100 µM | > 100 µM | > 100 µM | > 100 µM | > 100 µM | > 100 µM | > 100 µM | > 100 µM | > 100 µM | > 100 µM | > 100 µM | > 100 µM | > 100 µM
COc1ccncc1C#Cc1cncc(C(=O)Nc2ccc(CN3CCN(C)CC3)c(C(F)(F)F)c2)c1 | 19.3 µM | > 100 µM | 19.8 µM | > 100 µM | 0.0229 µM | > 100 µM | 14.5 µM | > 100 µM | 11.4 µM | 46 µM | 6.07 µM | > 100 µM | 17.5 µM | 66.2 µM | 37.3 µM | > 100 µM | 13.3 µM | 48.3 µM | 28.9 µM | > 100 µM
O=c1c2ccccc2sc2cccc(NCCCN3CCN(CCCNc4cccc5sc6ccccc6c(=O)c45)CC3)c12 | – | > 100 µM | – | > 100 µM | – | > 100 µM | – | > 100 µM | – | > 100 µM | – | > 100 µM | – | > 100 µM | – | > 100 µM | – | > 100 µM | – | > 100 µM
CC(=O)c1cc2c(o1)C(=O)c1ccccc1C2=O | 0.467 µM and 0.415 µM | 1.6 µM and 1.31 µM | 0.166 µM and 0.179 µM | 0.365 µM and 0.398 µM | 0.284 µM and 0.311 µM | 0.795 µM and 1.53 µM | 0.57 µM and 0.865 µM | 1.85 µM and 3.65 µM | 0.19 µM and 0.194 µM | 0.413 µM and 0.495 µM | 0.255 µM and 0.377 µM | 0.767 µM and 1.48 µM | 0.28 µM and 0.513 µM | 0.959 µM and 2.3 µM | 0.173 µM | 0.332 µM and 0.317 µM | 0.42 µM and 0.548 µM | 1.29 µM and 2 µM | 1.41 µM and 1.78 µM | 2.86 µM and 3.3 µM
Cn1cnc([N+](=O)[O-])c1S(=O)(=O)Oc1ccccc1 | 1.8 µM | 3.37 µM | 2.74 µM | > 28.4 µM | 2.52 µM | 15.5 µM | 3.65 µM | 18.9 µM | 0.759 µM | 2.3 µM | 3.22 µM | 15.1 µM | 16.5 µM | 48.2 µM | 29.9 µM | > 73 µM | 15.5 µM | 40.9 µM | 97.5 µM | > 100 µM
CC1(C)OCCn2c1nc1c(N3CCOCC3)nc(-c3cnc(N)nc3)nc12 | 0.274 µM | > 100 µM | 0.241 µM | > 100 µM | 2.27 µM | > 100 µM | 0.33 µM | > 100 µM | 0.415 µM | 40.8 µM | 0.278 µM | 8.82 µM | 0.426 µM | > 100 µM | 0.213 µM | 1.92 µM | 0.372 µM | 3.79 µM | 0.102 µM | 0.495 µM
Cc1ccc(Cn2c(C)nc3c2C(=O)c2ccccc2C3=O)cc1 | – | 38.9 µM | – | 60 µM | – | > 100 µM | – | > 100 µM | – | 18.1 µM | – | 63.4 µM | – | 36.9 µM | – | 42.9 µM | – | 45.6 µM | – | 45.6 µM
O=C(c1ccc(F)c(F)c1Nc1ccc(I)cc1F)N1CC(O)([C@@H]2CCCCN2)C1 | 0.463 µM and 0.637 µM | 15.1 µM and > 10 µM | 1.22 µM and 1.92 µM | 16.8 µM and > 10 µM | 0.216 µM and 0.574 µM | 6.15 µM and > 10 µM | 4.62 µM and 5.26 µM | 18.8 µM and > 10 µM | 4.16 µM and 3.22 µM | 21.6 µM and > 10 µM | 0.58 µM and > 3.96 µM | 17.1 µM and > 10 µM | 5.02 µM and 4.94 µM | 20.6 µM and > 10 µM | 15.7 µM and > 10 µM | 32.4 µM and > 10 µM | < 0.013 µM and 0.0327 µM | < 0.0268 µM | 5.46 µM and 3.26 µM | 20.6 µM and > 10 µM
CS(=O)(=O)CCCn1c(=O)c(Oc2ccc(F)cc2F)cc2cnc(NC3CCOCC3)nc21 | > 25 µM | > 25 µM | > 25 µM | > 25 µM | > 25 µM | > 25 µM | > 25 µM | > 25 µM | > 25 µM | > 25 µM | > 25 µM | > 25 µM | > 25 µM | > 25 µM | > 25 µM | > 25 µM | > 25 µM | > 25 µM | > 25 µM | > 25 µM
Cc1ccc(Cl)cc1Nc1nc(C(F)(F)F)ccc1C(=O)N1CCN(c2cccc(Cl)c2)CC1 | > 100 µM | > 100 µM | > 100 µM | > 100 µM | > 100 µM | > 100 µM | – | > 100 µM | 89.7 µM | > 100 µM | > 100 µM | > 100 µM | > 100 µM | > 100 µM | > 100 µM | > 100 µM | > 100 µM | > 100 µM | > 100 µM | > 100 µM
CCN(CC)CCOc1ccc(/C=C2\CC3C4CC=C5C[C@@H](O)CC[C@]5(C)C4CC[C@]3(C)C2=O)cc1OC (some centres undefined) | 1.77 µM | 3.32 µM | 2.27 µM | 6.19 µM | 3.09 µM | > 38.2 µM | 2.04 µM | > 23.5 µM | 3.57 µM | 14 µM | 18.8 µM | 45.9 µM | 7.39 µM | > 57.3 µM | 2.6 µM | 10.3 µM | 7.27 µM | 78.3 µM | 8.64 µM | > 58.3 µM
COc1cc(-c2nn(-c3cccc(NC(=O)Nc4ccc(Cl)c(Cl)c4)c3)cc2-c2ccncc2)ccc1Cl | 1 µM | > 50 µM | 1.23 µM | > 50 µM | 0.89 µM | > 50 µM | 1.1 µM | 4.48 µM | 0.811 µM | 3.1 µM | 1.29 µM | > 50 µM | 1.51 µM | 20.3 µM | 0.691 µM | 2.53 µM | 1.14 µM | 2.35 µM | 1.93 µM | > 50 µM
O=C(NCCCCN=c1cccccc1NCCCCNC(=O)OCc1ccccc1)OCc1ccccc1 | – | 59.5 µM | – | 23.2 µM | – | 33.4 µM | – | 38.1 µM | – | 36.8 µM | – | 57.5 µM | – | 63.8 µM | – | 26.9 µM | – | 36.9 µM | – | 45.5 µM
O=C(c1ccc(Cl)cc1)c1cnc(Nc2ccccc2Cl)s1 | – | 35.3 µM | – | 51.6 µM | – | > 100 µM | – | > 100 µM | – | 53.1 µM | – | 98.2 µM | – | 57.6 µM | – | 44.3 µM | – | 30.7 µM | – | 52 µM
Cc1c(Cl)cccc1N1C(=O)C(Cl)=C(Cl)C1=O | – | > 100 µM | – | > 100 µM | – | > 31.6 µM | – | 28.1 µM | – | 27.9 µM | – | > 100 µM | – | > 100 µM | – | > 100 µM | – | > 100 µM | – | > 100 µM
O=C(CC(O)(C(F)(F)F)C(F)(F)F)c1cc(CC(=O)C(O)(C(F)(F)F)C(F)(F)F)cc(CC(=O)C(O)(C(F)(F)F)C(F)(F)F)c1 | – | > 6.02 µM | – | > 8.79 µM | – | > 10 µM | – | > 10 µM | – | 4.59 µM | – | > 10 µM | – | > 10 µM | – | 4.47 µM | – | 3.71 µM | – | 9.55 µM
COC1C(O)=C2C(=O)O/C(C)=C/C=C/C=C/C=C\CC(c3ccccc3)NC(=O)\C=C/C=C\C=C\C=C\[C@@]2(C)[C@@H]1O (some centres undefined) | – | 0.122 µM | – | 0.0834 µM | – | 0.158 µM | – | 0.177 µM | – | < 0.0285 µM | – | 1.85 µM | – | 0.318 µM | – | 0.0238 µM | – | 0.15 µM | – | 0.188 µM
CCc1cccc(C)c1NC(=O)C(=O)Cc1nc2ccccc2o1 | – | > 100 µM | – | > 100 µM | – | > 100 µM | – | > 100 µM | – | > 100 µM | – | > 100 µM | – | > 100 µM | – | > 100 µM | – | > 100 µM | – | > 100 µM
Cc1ccc(/C=C/c2c(C(=O)/C=C/c3ccc(C(F)(F)F)cc3)c(C)nc3ccccc23)cc1 | 1.4 µM | 2.7 µM | 0.89 µM | 3.49 µM | 1.55 µM | > 100 µM | 0.625 µM | > 100 µM | 1.33 µM | 4.35 µM | 1.61 µM | 3.37 µM | 1.57 µM | 3.09 µM | 1.74 µM | 3.14 µM | 1.83 µM | 3.92 µM | 1.8 µM | 3.6 µM
CCOC(=O)NC(=O)c1cn(CCOC(=O)NCCCCCCNC(=O)OCCn2cc(C(=O)NC(=O)OCC)c(=O)[nH]c2=O)c(=O)[nH]c1=O | – | > 100 µM | – | > 100 µM | – | > 100 µM | – | > 100 µM | – | > 100 µM | – | > 100 µM | – | > 100 µM | – | > 100 µM | – | > 100 µM | – | > 100 µM
NS(=O)(=O)c1ccc(N(/C=C/C(=O)C(F)(F)F)CC(=O)c2ccc(Cl)cc2)cc1 | 30.4 µM | 91.4 µM | 35.5 µM | > 100 µM | 33.5 µM | 93.6 µM | 32.9 µM | 89.9 µM | 24.3 µM | 72.2 µM | 60 µM | > 100 µM | 34.5 µM | > 100 µM | 26.2 µM | 74.4 µM | 38.1 µM | > 100 µM | 69 µM | > 100 µM
Cn1cc(C2=C(c3cn(C)c4cc(C(N)=O)ccc34)C(=O)NC2=O)c2ccccc21 | 2.64 µM | > 25 µM | 1.19 µM | > 25 µM | 0.857 µM | > 25 µM | 1.83 µM | > 20.9 µM | 0.471 µM | 3.2 µM | 4.91 µM | > 25 µM | 1.74 µM | > 18.3 µM | 0.987 µM | > 25 µM | 1.44 µM | > 16.1 µM | 1.44 µM | > 22.2 µM
